The source made the active and inactive calls. The rule behind the calls is not given here.
Legend:
Assay type in all cases: functional, cell-based
MDA-MB-231 = assay: Cytotoxicity against human MDA-MB-231 cells after 44 hrs by MTT assay; conditions: MDA-MB-231, 44 h
HCT-116 = assay: Cytotoxicity against human HCT116 cells after 44 hrs by MTT assay
HepG2 = assay: Cytotoxicity against human HepG2 cells after 44 hrs by MTT assay
MCF7 = assay: Cytotoxicity against human MCF7 cells after 44 hrs by MTT assay; conditions: MCF7, 44 h
A549 = assay: Cytotoxicity against human A549 cells after 44 hrs by MTT assay
NCI-H292 = assay: Cytotoxicity against human NCI-H292 cells after 44 hrs by MTT assay

Row | Compound | IC50 (MDA-MB-231) [µM] | IC50 (HCT-116; HCT-116, 44 h) [µM] | IC50 (HepG2; HepG2, 44 h) [µM] | IC50 (MCF7) [µM] | IC50 (A549; A549, 44 h) [µM] | IC50 (NCI-H292; NCI-H292, 44 h) [µM] | Activity (HCT-116) | Activity (HepG2) | Activity (A549) | Activity (NCI-H292)
1 | C=C1CC[C@@H](C(C)C)[C@H]2/C=C(/C(=O)OC)CC/C=C(\C(=O)O)[C@H](O)C[C@H]12 | > 100 | > 100 | > 100 | > 100 | > 100 | > 100 |  |  |  | 
2 | C=C1CCC(=C(C)C)[C@H]2/C=C(/C(=O)OC)CC/C=C(\C(=O)O)[C@H](O)C[C@H]12 | 8.6 |  |  | 5.3 |  |  | Active | Active | Active | Active

Reference: ChEMBL document CHEMBL4627392, “Streptomyces albogriseolus SY67903 Produces Eunicellin Diterpenoids Structurally Similar to Terpenes of the Gorgonian Muricella sibogae, the Bacterial Source” (J Nat Prod, 2020)
